Where two headings read alike, the source gives them in different places.
Assays:
[1] = molecular target: T1, ENaC (Epithelial Sodium Channel) (Mus musculus, UniProt Q61180+Q9WU38+Q9WU39); experiment: Ussing chamber: short circuit current in M-1 cells; type: cell-based
T1 construct: Mouse kidney M-1 cells were cultivated in DMEM; endogenous in cells; host or cells: mouse kidney M-1 cells
T1 sequence (Q61180 1-699): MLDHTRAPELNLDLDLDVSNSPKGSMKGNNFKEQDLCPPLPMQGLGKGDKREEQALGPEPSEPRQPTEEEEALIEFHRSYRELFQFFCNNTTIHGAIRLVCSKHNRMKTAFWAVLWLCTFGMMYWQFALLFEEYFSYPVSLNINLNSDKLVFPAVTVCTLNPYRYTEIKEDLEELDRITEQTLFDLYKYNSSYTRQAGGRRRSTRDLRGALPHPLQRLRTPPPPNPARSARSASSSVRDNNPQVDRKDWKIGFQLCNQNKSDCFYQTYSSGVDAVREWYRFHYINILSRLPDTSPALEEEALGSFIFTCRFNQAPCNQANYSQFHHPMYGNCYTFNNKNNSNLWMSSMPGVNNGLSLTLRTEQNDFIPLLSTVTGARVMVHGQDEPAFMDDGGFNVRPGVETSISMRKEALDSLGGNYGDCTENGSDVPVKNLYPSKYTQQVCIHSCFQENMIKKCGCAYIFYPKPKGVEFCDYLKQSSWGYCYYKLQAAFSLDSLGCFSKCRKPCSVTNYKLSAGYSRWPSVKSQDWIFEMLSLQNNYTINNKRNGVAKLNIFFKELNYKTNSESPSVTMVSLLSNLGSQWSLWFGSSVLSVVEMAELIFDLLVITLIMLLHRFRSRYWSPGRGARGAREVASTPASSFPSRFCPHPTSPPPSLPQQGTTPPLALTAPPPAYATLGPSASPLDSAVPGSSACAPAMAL
T1 sequence (Q9WU38 1-638): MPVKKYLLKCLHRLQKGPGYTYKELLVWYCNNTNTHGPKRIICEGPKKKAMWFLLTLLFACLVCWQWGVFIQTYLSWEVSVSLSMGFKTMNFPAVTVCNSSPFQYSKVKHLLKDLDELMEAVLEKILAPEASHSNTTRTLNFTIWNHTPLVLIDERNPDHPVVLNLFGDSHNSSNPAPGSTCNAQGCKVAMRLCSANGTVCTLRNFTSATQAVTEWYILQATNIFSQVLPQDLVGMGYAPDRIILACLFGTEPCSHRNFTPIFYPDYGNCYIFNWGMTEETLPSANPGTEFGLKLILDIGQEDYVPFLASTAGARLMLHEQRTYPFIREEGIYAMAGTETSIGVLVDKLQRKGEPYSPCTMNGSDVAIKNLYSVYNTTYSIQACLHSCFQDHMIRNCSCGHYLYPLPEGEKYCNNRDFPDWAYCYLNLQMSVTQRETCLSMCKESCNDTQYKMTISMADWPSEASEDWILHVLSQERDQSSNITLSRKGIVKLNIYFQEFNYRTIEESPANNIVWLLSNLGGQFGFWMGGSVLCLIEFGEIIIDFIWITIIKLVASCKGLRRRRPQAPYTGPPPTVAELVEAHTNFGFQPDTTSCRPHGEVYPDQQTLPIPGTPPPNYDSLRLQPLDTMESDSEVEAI
T1 sequence (Q9WU39 1-655): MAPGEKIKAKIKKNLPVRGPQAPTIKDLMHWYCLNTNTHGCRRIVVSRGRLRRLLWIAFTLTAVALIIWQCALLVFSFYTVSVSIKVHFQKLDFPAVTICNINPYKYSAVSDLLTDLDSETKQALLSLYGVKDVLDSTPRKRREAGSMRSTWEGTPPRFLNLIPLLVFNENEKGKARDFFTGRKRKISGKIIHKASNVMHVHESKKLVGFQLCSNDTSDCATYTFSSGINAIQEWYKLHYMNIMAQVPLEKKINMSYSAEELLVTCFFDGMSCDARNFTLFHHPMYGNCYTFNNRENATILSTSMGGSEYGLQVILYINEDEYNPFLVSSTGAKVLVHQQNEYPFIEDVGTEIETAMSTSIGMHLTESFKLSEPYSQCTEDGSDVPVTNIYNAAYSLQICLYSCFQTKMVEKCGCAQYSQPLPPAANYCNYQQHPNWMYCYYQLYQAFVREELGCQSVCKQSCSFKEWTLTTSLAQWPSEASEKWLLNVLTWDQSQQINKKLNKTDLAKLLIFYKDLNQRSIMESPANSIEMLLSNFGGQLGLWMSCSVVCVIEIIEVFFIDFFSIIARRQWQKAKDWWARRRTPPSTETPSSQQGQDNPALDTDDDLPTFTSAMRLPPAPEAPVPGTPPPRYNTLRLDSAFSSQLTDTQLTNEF
Protocol: Mouse kidney M-1 cells were cultivated in DMEM containing 5% FCS and 5 μM dexamethasone for 10 to 12 days on polyester transwell filters. Filters were inserted into a teflon-coated well-plate which fit into the ussing chamber system. Prior to measurement the medium of M-1 cells was replaced with Caco-2 transport buffer (Invitrogen, Germany). During measurements, the Ussing chamber temperature was kept at 37° C. Short circuit currents (I_sc) were measured in the voltage-clamp mode with the software package Lab View for data acquisition and analysis. The transepithelial electrical resistance (TEER) was determined by the application of voltage steps of ±5 mV every 5 sec. Compounds were administered at a final concentration of 3 μM or at increasing concentrations (1-3-10 μM) to the apical solution. At the end of each experiment the amiloride sensitive I_SC was measured by adding 3 μM amiloride to the apical compartment. Results are expressed as inhibition in percent of the amiloride effect or as IC50.
With the example compounds given above, the following IC50 values were determined in the Ussing Chamber assay: […]

[2] = Permeability in CALU-3 cells; type: in vitro ADME; details: human, CALU-3 monolayers, 10 μM compound, pH 7.4, 37° C.; for Papp A→B at 90 min, 10 μM: apical-to-basal; for Papp B→A at 90 min, 10 μM: basal-to-apical
Protocol: Permeability in CALU-3 Cells:
Permeability measurements across polarized, confluent CALU-3 cell monolayers grown on permeable filter supports are used to provide information on the potential of a compound to pass the lung epithelium. Apparent permeability coefficients (Papp) of the compounds across the CALU-3 cell monolayers are measured (pH 7.4, 37° C.) in apical-to-basal (AB) and basal-toapical (BA) transport direction.
CALU-3 cells (1-2×10^5 cells/1 cm^2 area) are seeded on filter inserts (Costar transwell polycarbonate filters, 0.4 μm pore size) and cultured (for 10-12 days DMEM) until tight monolayers are formed. Compounds of interest are dissolved in appropriate solvent (DMSO, 10 mM stock solution). Stock solutions are diluted with HTP-4 buffer (128.13 mM NaCl, 5.36 mM KC, 1 mM MgSO4, 1.8 mM CaCl2, 4.17 mM NaHCO3, 1.19 mM Na2HPO4×7H2O, 0.41 mM NaH2PO4xH2O, 15 mM HEPES, 20 mM glucose, 0.25% BSA, pH 7.4) to prepare the transport solutions (10 μM compound, final DMSO<=0.5%). The transport solution (TL) is applied to the apical or basolateral donor side for measuring A-B or B-A permeability (3 filter replicates), respectively. The receiver side contains the same buffer as the donor side. After 30 min of accommodation, samples are collected at the start t0=0 min and at the end of the experiment tn=90 min from the donor and at 0, 30, 60, and 90 min also from the receiver chamber. Volume removed is replenished by HTP-4 buffer. The compound concentration in the samples is measured by HPLC-MS/MS or scintillation counting. The permeability coefficient (Papp) and efflux ratio are calculated according to: Papp [cm/s]=(concentration receiver [nM]*volume receiver [mL]/time interval [sec])*(1/filter area)*(1/donor concentration [nM])
With example compounds given above, the following permeability values were determined in the CALU-3 cells assay: […]

[3] = Ussing chamber, mouse kidney M-1 cells, amiloride sensitive I_SC, apical application, 37° C., read-out: IC50

SMILES | IC50 [1, 3] [nM] | other results
CCOP(=O)([O-])CCCOc1ccc2c(c1)n(CC)c(CNC(=O)c1nc(Cl)c(N)nc1N)[n+]2CCOC [Example 1.1] | 11 | Papp A→B at 90 min, 10 μM [2]: 0.1 ×10⁻⁶ cm/s; Papp B→A at 90 min, 10 μM [2]: 0.03 ×10⁻⁶ cm/s
CCn1c(CNC(=O)c2nc(Cl)c(N)nc2N)[n+](CC)c2ccc(CNC(=O)OCC3c4ccccc4-c4ccccc43)cc21 [Example 1.2] | 9 | 
CCn1c(CNC(=O)c2nc(Cl)c(N)nc2N)[n+](CC)c2cc(Cl)c(N(CCO)CCO)cc21 [Example 1.3] | 2 | 
CCn1c(CNC(=O)c2nc(Cl)c(N)nc2N)[n+](CC)c2ccc(OCCNC(=O)OC(C)(C)C)cc21 [Example 1.4] | 0.4 | 
CCn1c(CNC(=O)c2nc(Cl)c(N)nc2N)[n+](CC)c2cc(Cl)c(O[C@H]3CO[C@H]4[C@@H]3OC[C@@H]4O)cc21 [Example 1.5] | 1 | Papp A→B at 90 min, 10 μM [2]: 0.3 ×10⁻⁶ cm/s; Papp B→A at 90 min, 10 μM [2]: 0.1 ×10⁻⁶ cm/s
CCn1c(CNC(=O)c2nc(Cl)c(N)nc2N)[n+](C[C@H](C)O)c2cc(OCCN)ccc21 [Example 1.7] | 2 | Papp A→B at 90 min, 10 μM [2]: 0.03 ×10⁻⁶ cm/s; Papp B→A at 90 min, 10 μM [2]: 0.05 ×10⁻⁶ cm/s
CCOP(=O)([O-])CCCOc1ccc2c(c1)n(CC)c(CNC(=O)c1nc(Br)c(N)nc1N)[n+]2CCOC [Example 2.1] | 16 | Papp A→B at 90 min, 10 μM [2]: 0.2 ×10⁻⁶ cm/s; Papp B→A at 90 min, 10 μM [2]: 0.08 ×10⁻⁶ cm/s
CCOP(=O)(CCCOc1ccc2c(c1)n(CC)c(CNC(=O)c1nc(Cl)c(N)nc1N)[n+]2CC)OCC [Example 3.1] | 3 | 
CCn1c(CNC(=O)c2nc(Cl)c(N)nc2N)[n+](CC)c2cc(Cl)c(OCCOCCOC)cc21 [Example 3.2] | 0.5 | 
CCn1c(CNC(=O)c2nc(Cl)c(N)nc2N)[n+](CC)c2ccc(O[C@H](C)C(=O)N3CCNC(=O)C3)cc21 [Example 3.3] | 1 | 
CCNC(=O)COc1ccc2c(c1)n(C(C)C)c(CNC(=O)c1nc(Cl)c(N)nc1N)[n+]2CC [Example 3.4] | 1 | 
CCNC(=O)[C@@H](C)Oc1ccc2c(c1)n(CC)c(CNC(=O)c1nc(Cl)c(N)nc1N)[n+]2CC [Example 3.5] | 0.5 | Papp A→B at 90 min, 10 μM [2]: 1 ×10⁻⁶ cm/s; Papp B→A at 90 min, 10 μM [2]: 0.4 ×10⁻⁶ cm/s
CCNC(=O)[C@H](C)Oc1ccc2c(c1)n(CC)c(CNC(=O)c1nc(Cl)c(N)nc1N)[n+]2CC [Example 3.6] | 1 | 
CC[n+]1c(CNC(=O)c2nc(Cl)c(N)nc2N)n(CCCCCO)c2cc(O)ccc21 [Example 3.7] |  | Papp A→B at 90 min, 10 μM [2]: 0.7 ×10⁻⁶ cm/s; Papp B→A at 90 min, 10 μM [2]: 0.3 ×10⁻⁶ cm/s
CCn1c(CNC(=O)c2nc(Cl)c(N)nc2N)[n+](C)c2ccc(O)cc21 [Example 3.9] | 1 | 
CCn1c(CNC(=O)c2nc(Cl)c(N)nc2N)[n+](CC)c2ccc(O)cc21 [Example 3.10] | 0.2 | 
CCOP(=O)(CCCOc1ccc2c(c1)n(CC)c(CNC(=O)c1nc(Cl)c(N)nc1N)[n+]2CCOC)OCC [Example 3.13] |  | IC50 [1]: 2 nM
CCNC(=O)COc1ccc2c(c1)n(CC)c(CNC(=O)c1nc(Cl)c(N)nc1N)[n+]2CC [Example 3.14] | 0.3 | 
CCn1c(CNC(=O)c2nc(Cl)c(N)nc2N)[n+](CC)c2ccc(O[C@@H]3CO[C@H]4[C@@H]3OC[C@H]4O)cc21 [Example 3.15] | 3 | 
CCn1c(CNC(=O)c2nc(Cl)c(N)nc2N)[n+](CC)c2ccc(OCCCP(=O)([O-])O)cc21 [Example 4.1] | 11 | 
CCn1c(CNC(=O)c2nc(Cl)c(N)nc2N)[n+](CC)c2ccc(OCCNCC(=O)[O-])cc21 [Example 5.1] | 5 | 
CCn1c(CNC(=O)c2nc(Cl)c(N)nc2N)[n+](CC)c2ccc(CN)cc21 [Example 6.1] | 1 | 
CCn1c(CNC(=O)c2nc(Cl)c(N)nc2N)[n+](CC)c2ccc(OCCN)cc21 [Example 6.2] | 1 | 
CCNC(=O)c1cc2c(cc1OCC(=O)N1CCNCC1)n(CC)c(CNC(=O)c1nc(Cl)c(N)nc1N)[n+]2CC [Example 6.3] | 4 | 
CCn1c(CNC(=O)c2nc(Cl)c(N)nc2N)[n+](CC)c2ccc(OCCNC(=O)C[N+](C)(C)C)cc21 [Example 8.1] | 0.4 | 
CCn1c(CNC(=O)c2nc(Cl)c(N)nc2N)[n+](CC)c2ccc(CNC(=O)C[N+](C)(C)C)cc21 [Example 8.2] | 5 | 
CCn1c(CNC(=O)c2nc(Cl)c(N)nc2N)[n+](CC)c2ccc(C[N+](C)(C)C)cc21 [Example 8.3] | 2 | 
CCn1c(CNC(=O)c2nc(Cl)c(N)nc2N)[n+](CC)c2ccc(OCCNCC(=O)OC)cc21 [Example 9.1] | 2 | 
CCn1c(CNC(=O)c2nc(Cl)c(N)nc2N)[n+](CC)c2ccc(OCCNC(=N)N)cc21 [Example 10.1] | 0.3 | 
CCn1c(CNC(=O)c2nc(Cl)c(N)nc2N)[n+](CC)c2ccc(CNC(=O)COc3cc(C(=O)N[C@H]4CC[C@H](N(C)C)CC4)cc(C(=O)N[C@H]4CC[C@H](N(C)C)CC4)c3)cc21 [Example 11.1] | 2 | 
